Source: ChEMBL document CHEMBL5506005, “Biochemical and structural characterization of chlorhexidine as an ATP-assisted inhibitor against type 1 methionyl-tRNA synthetase from Gram-positive bacteria” (Eur J Med Chem, 2024)

Columns and labels:
[1] = target: Methionine--tRNA ligase (Staphylococcus aureus (strain Mu50 / ATCC 700699)) (UniProt P67578); assay: Inhibition of Staphylococcus aureus MetRS expressed in Escherichia coli BL21(DE3) cells at 100 uM measured after 2.5 hrs in presence of ATP by pre-transfer editing assay relative to control
[2] = target: Methionine--tRNA ligase (Staphylococcus aureus (strain Mu50 / ATCC 700699)) (UniProt P67578); assay: Binding affinity to Staphylococcus aureus MetRS expressed in Escherichia coli BL21(DE3) cells assessed as change in melting temperature at 100 uM incubated for 10 mins followed by heat treatment in presence of 2 mM ATP by SYPRO orange dye based TSA (reference value: 56.4 degreeC)
[3] = target: Methionine--tRNA ligase (Staphylococcus aureus (strain Mu50 / ATCC 700699)) (UniProt P67578); assay: Binding affinity to Staphylococcus aureus MetRS expressed in Escherichia coli BL21(DE3) cells assessed as change in melting temperature at 100 uM incubated for 10 mins followed by heat treatment by SYPRO orange dye based TSA (reference value: 53.7 degreeC)
[4] = target: T1, Methionine--tRNA ligase (Staphylococcus aureus (strain Mu50 / ATCC 700699), UniProt P67578); assay: Inhibition of Staphylococcus aureus MetRS expressed in Escherichia coli BL21(DE3) cells measured after 2.5 hrs in presence of ATP by pre-transfer editing assay
[5] = target: T2, Methionine--tRNA ligase (Enterococcus faecalis, UniProt A0A3N3ZFK4); assay: Binding affinity to Enterococcus faecalis type 1 MetRS expressed in Escherichia coli BL21(DE3) cells assessed as dissociation constant by ITC analysis
[6] = target: T2, Methionine--tRNA ligase; assay: Binding affinity to Enterococcus faecalis type 1 MetRS expressed in Escherichia coli BL21(DE3) cells assessed as dissociation constant in presence of 1 mM ATP by ITC analysis
[7] = target: T1, Methionine--tRNA ligase; assay: Binding affinity to Staphylococcus aureus MetRS expressed in Escherichia coli BL21(DE3) cells assessed as dissociation constant in presence of 50 uM ATP by ITC analysis
[8] = target: T1, Methionine--tRNA ligase; assay: Binding affinity to Staphylococcus aureus MetRS expressed in Escherichia coli BL21(DE3) cells assessed as dissociation constant in presence of 1 mM ADP by ITC analysis
[9] = target: T1, Methionine--tRNA ligase; assay: Binding affinity to Staphylococcus aureus MetRS expressed in Escherichia coli BL21(DE3) cells assessed as dissociation constant in presence of 1 mM ATP by ITC analysis
[10] = target: T1, Methionine--tRNA ligase; assay: Binding affinity to Staphylococcus aureus MetRS expressed in Escherichia coli BL21(DE3) cells assessed as dissociation constant in presence of 1 mM AMP by ITC analysis
[11] = target: T1, Methionine--tRNA ligase; assay: Binding affinity to Staphylococcus aureus MetRS expressed in Escherichia coli BL21(DE3) cells assessed as dissociation constant in presence of 500 uM ATP by ITC analysis
[12] = target: T2, Methionine--tRNA ligase; assay: Inhibition of Enterococcus faecalis type 1 MetRS expressed in Escherichia coli BL21(DE3) cells measured after 1.5 hrs in presence of ATP by pre-transfer editing assay
[13] = target: T1, Methionine--tRNA ligase; assay: Binding affinity to Staphylococcus aureus MetRS expressed in Escherichia coli BL21(DE3) cells assessed as dissociation constant in presence of 20 uM ATP by ITC analysis
[14] = target: T1, Methionine--tRNA ligase; assay: Binding affinity to Staphylococcus aureus MetRS expressed in Escherichia coli BL21(DE3) cells assessed as dissociation constant in presence of ATP/L-Met by ITC analysis
[15] = target: T1, Methionine--tRNA ligase; assay: Binding affinity to Staphylococcus aureus MetRS expressed in Escherichia coli BL21(DE3) cells assessed as dissociation constant by ITC analysis

Sequence of Methionine--tRNA ligase (Staphylococcus aureus (strain Mu50 / ATCC 700699)) (P67578 whole entry): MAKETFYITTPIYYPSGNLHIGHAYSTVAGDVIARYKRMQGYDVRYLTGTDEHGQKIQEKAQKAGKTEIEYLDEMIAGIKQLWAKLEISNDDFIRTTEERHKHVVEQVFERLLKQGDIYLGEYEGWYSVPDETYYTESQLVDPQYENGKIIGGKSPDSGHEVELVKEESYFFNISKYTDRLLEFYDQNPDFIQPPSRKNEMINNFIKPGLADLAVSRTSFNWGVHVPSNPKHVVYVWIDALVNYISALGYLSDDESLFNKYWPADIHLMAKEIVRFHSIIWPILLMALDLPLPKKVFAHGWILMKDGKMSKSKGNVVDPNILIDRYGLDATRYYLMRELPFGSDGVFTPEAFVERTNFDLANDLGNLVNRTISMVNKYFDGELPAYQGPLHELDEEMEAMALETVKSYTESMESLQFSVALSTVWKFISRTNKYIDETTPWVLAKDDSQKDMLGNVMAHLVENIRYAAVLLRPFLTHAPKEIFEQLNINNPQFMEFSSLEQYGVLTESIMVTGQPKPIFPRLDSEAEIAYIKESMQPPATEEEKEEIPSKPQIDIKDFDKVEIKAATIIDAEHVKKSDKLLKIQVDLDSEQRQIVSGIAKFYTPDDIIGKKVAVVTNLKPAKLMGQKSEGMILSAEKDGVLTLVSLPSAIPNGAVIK
T1 sequence (P67578 whole entry): as above
T2 sequence (A0A3N3ZFK4 whole entry): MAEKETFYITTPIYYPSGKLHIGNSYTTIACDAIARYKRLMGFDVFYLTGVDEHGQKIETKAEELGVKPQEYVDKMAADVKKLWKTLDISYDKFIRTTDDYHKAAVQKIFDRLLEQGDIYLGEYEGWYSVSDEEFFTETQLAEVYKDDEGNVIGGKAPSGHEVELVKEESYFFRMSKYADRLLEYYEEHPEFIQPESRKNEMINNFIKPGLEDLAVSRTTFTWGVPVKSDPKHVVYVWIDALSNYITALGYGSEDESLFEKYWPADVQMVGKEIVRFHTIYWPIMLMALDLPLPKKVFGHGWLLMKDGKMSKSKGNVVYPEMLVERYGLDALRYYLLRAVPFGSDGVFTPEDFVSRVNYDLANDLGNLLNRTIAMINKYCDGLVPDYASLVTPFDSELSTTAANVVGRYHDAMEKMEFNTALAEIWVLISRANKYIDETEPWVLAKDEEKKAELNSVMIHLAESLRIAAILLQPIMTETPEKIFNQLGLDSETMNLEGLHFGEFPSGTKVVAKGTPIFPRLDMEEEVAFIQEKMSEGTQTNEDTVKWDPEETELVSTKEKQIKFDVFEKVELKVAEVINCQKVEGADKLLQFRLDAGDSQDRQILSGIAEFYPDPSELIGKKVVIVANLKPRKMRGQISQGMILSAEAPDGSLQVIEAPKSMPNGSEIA

| Molecule | inhibition [1] | ΔTm [2] | ΔTm [3] | IC50 [4] | Kd [5] | Kd [6] | Kd [7] | Kd [8] | Kd [9] | Kd [10] | Kd [11] | IC50 [12] | Kd [13] | Kd [14] | Kd [15] |
| --- | --- | --- | --- | --- | --- | --- | --- | --- | --- | --- | --- | --- | --- | --- | --- |
| VITAMIN E | < 20% | 1 °C | 1.2 °C |  |  |  |  |  |  |  |  |  |  |  |  |
| [H]/N=C(\N/C(=N/[H])NCCCCCCNC(=N)NC(=N)Nc1ccc(Cl)cc1)Nc1ccc(Cl)cc1 [CHLORHEXIDINE] |  |  |  | 30800 nM | 5040 nM | 300 nM | 1210 nM | 1900 nM | 450 nM | 6 nM | 593 nM | 8500 nM | 3100 nM | 4190 nM | 10200 nM |
